Test results reported in patent US12496315B2, “Compositions for drug delivery and methods of use thereof” (Stellular Bio, Inc., priority 2018, dated 2025).

What was measured:
[1] = system: iPSC differentiation cultures on Laminin 521; assay: WNT agonist addition during iPSC directed differentiation; assay type: cell-based, human; conditions: for Stage 1 differentiation efficiency at day 6, CD31 and CD34 immunofluorescence: first 48 hours
Description: WNT signaling is important during development. The GSK3 kinase inhibitors CHIR98014 and CHIR99021 act as WNT agonists. […] The control and CHIR98014 cultures were then transitioned to Stage 2, where the production and release of preMKs were tracked by immunofluorescence staining of CD41 and CD43.

iPSCs = assay: Soluble Laminin 521 addition in 3D iPSC differentiation, preMK yield; assay type: cell-based, human; conditions: for Stage 2 preMK yields vs control: addition at Day −1 or Day 6
Procedure: […] 24 hours later, the media was replaced with Stage 1 media and media exchanges were performed for 6 days. Media was then exchanged with Stage 2 media, with or without soluble Laminin 521. 24 hours later, daily half media exchanges were performed for up to 6 additional days. […] To determine if the effect of Laminin 521 could also be observed in agitated 3D cultures, iPSCs were dissociated as single cells and 1.5 million cells were seeded into each well of a 6-well ultra-low adherent plate containing StemFlex and the Rock inhibitor H1152 (control media), with or without soluble recombinant Laminin 521, and placed on an orbital shaker. 24 hours later, the media was replaced with Stage 1 media and media exchanges were performed for 6 days. Media was then exchanged with Stage 2 media, with or without soluble Laminin 521. 24 hours later, daily half media exchanges were performed for up to 6 additional days.

Compound: CHIR98014
- Stage 1 differentiation efficiency at day 6, CD31 and CD34 immunofluorescence ([1]; 0.6 μM): dramatic increase
- Stage 2 output, visual estimation of CD41+ cells ([1]; 0.6 μM, first 48 hours of Stage 1): higher output during Stage 2

Compound: Laminin 521: soluble recombinant Laminin 521
- Stage 2 preMK yields vs control (iPSCs; 6-well ultra-low adherent plate on orbital shaker): increased the preMK yields
- Stage 2 preMK yields vs control (iPSCs; 96-well U-bottom ultra-low adherent plate): increased the preMK yields
- Laminin 521 effect on preMK yields (iPSCs; single cell passaged iPSCs aggregated in NutriStem): amplified

Compound: Cc1c[nH]c(-c2cnc(NCCNc3ccc(C#N)cn3)nc2-c2ccc(Cl)cc2Cl)n1 [CHIR99021]
- Stage 1 differentiation efficiency at day 6, CD31 and CD34 immunofluorescence ([1]; 6 μM): dramatic increase
